From US10322191B2, “Targeted conjugates and particles and formulations thereof” (TARVEDA THERAPEUTICS, INC., priority 2014, dated 2019)
pIC50: −log10 of the molar value. Like-named read-outs stand apart in the source and are kept apart here.

Tested on: NCI-H524 (ATCC) human lung cancer cells
Format: cell-based
Procedure: Conjugates were assessed in an in vitro assay evaluating inhibition of cell proliferation. NCI-H524 (ATCC) human lung cancer cells were plated in 96 well, V-bottomed plates (Costar) at a concentration of 5,000 cells/well and 24 hours later were treated with compound for 2 hours and further incubated 70 hours. Compound starting dose was 20 μM and three-fold serial dilutions were done for a total of ten points. After 2 hours of treatment, cells were spun down, the drug containing media was removed, and fresh complete medium was added and used to resuspend the cells, which were spun again. After removal of the wash media, the cells were resuspended in complete medium, then transferred into white walled, flat bottomed 96 well plates. […] Proliferation was measured using CellTiter Glo reagent using the standard protocol (Promega) and a Glomax multi+detection system (Promega). Percent proliferation inhibition was calculated using the following formula: % inhibition=(control-treatment)/control*100. Control is defined as vehicle alone. IC50 curves were generated using the nonlinear regression analysis (four parameter) with GraphPad Prism 6.
Conjugates of the present invention were assessed in an in vitro assay evaluating inhibition of cell proliferation. NCI-H524 (ATCC) human lung cancer cells were plated in 96 well, V-bottomed plates (Costar) at a concentration of 5,000 cells/well. 24 hours later, cells were treated with either conjugate for 2 hours and further incubated 70 hours, or for octreotide competition experiments, treated with 100 μM octreotide for 30 min, and then treated with conjugate for 2 hours, and further incubated for 70 hours. Conjugate starting dose was 20 μM and three fold serial dilutions were done for a total of ten points. After 2 hours of treatment, cells were spun down, the drug containing media was removed, and fresh complete medium was added and used to resuspend the cells, which were spun again. After removal of the wash media, the cells were resuspended in complete medium, then transferred into white walled, flat bottomed 96 well plates. […] Proliferation was measured using CellTiter Glo reagent using the standard protocol (Promega) and a Glomax multi+detection system (Promega). Percent proliferation inhibition was calculated using the following formula: % inhibition=(control-treatment)/control*100. Control is defined as vehicle alone. IC50 curves were generated using the nonlinear regression analysis (four parameter) with GraphPad Prism 6.
Conjugates of the present invention were tested for their activity dependence on the somatostatin receptor. Active agent Z in the conjugate was selected from auristatin, carbazitaxel, DM1, doxorubicin, platinum, SN-38 and vinblastine. Active agent Z is connected to octreotide with various linkers. Proliferation IC50 values of the conjugates were measured. Proliferation IC50 values of the conjugates without octreotide competition were also measured. The ratio of IC50 with octreotide competition and IC50 without octreotide competition is an indicator of whether activity is at least partially dependent on bind to the somatostatin receptor.

[1] = Table 15, treated 2 hours, further incubated 70 hours, read-out: H524 IC50
[2] = read-out: H524 IC50+ 100 uM octreotide, Table 15, 100 μM octreotide for 30 min, then conjugate 2 hours, 70 hours incubation

SMILES	pIC50 [1]	pIC50 [2]	pIC50 (Table 6, treated 2 hours, further incubated 70 hours, read-out: H524 IC50)	pIC50 (read-out: H524 IC50 + 100 μM octreotide, Table 6, with octreotide competition)	effect on cell proliferation (octreotide alone)
CCCCCCCCCCC(CCN[C@H](Cc1ccccc1)C(=O)N[C@H]1CSSC[C@@H](C(=O)N[C@@H](CO)[C@@H](C)O)NC(=O)[C@H]([C@@H](C)O)NC(=O)[C@H](CCCCN)NC(=O)[C@@H](Cc2c[nH]c3ccccc23)NC(=O)[C@H](Cc2ccccc2)NC1=O)SSCCC(=O)N(C)[C@@H](C)C(=O)O[C@H]1CC(=O)N(C)c2cc(cc(OC)c2Cl)C/C(C)=C/C=C/[C@@H](OC)[C@@]2(O)C[C@H](OC(=O)N2)[C@@H](C)[C@@H]2O[C@@]12C (some centres unmarked) [Conjugate 106]	6.40	6.18			
COc1cc2cc(c1Cl)N(C)C(=O)C[C@H](OC(=O)[C@H](C)N(C)C(=O)CCSC1CC(=O)N(CC3CCC(C(=O)N[C@H](Cc4ccccc4)C(=O)N[C@H]4CSSC[C@@H](C(=O)N[C@H](CO)[C@@H](C)O)NC(=O)[C@H]([C@@H](C)O)NC(=O)[C@H](CCCCN)NC(=O)[C@@H](Cc5c[nH]c6ccccc56)NC(=O)[C@H](Cc5ccccc5)NC4=O)CC3)C1=O)[C@]1(C)O[C@H]1[C@H](C)[C@@H]1C[C@@](O)(NC(=O)O1)[C@H](OC)/C=C/C=C(\C)C2 (some centres unmarked) [Conjugate 104]	6.55	6.15			
COc1cc2cc(c1Cl)N(C)C(=O)C[C@H](OC(=O)[C@H](C)N(C)C(=O)CCSSC(C)CCN[C@H](Cc1ccccc1)C(=O)N[C@H]1CSSC[C@@H](C(=O)N[C@H](CO)[C@@H](C)O)NC(=O)[C@H]([C@@H](C)O)NC(=O)[C@H](CCCCN)NC(=O)[C@@H](Cc3c[nH]c4ccccc34)NC(=O)[C@H](Cc3ccccc3)NC1=O)[C@]1(C)O[C@H]1[C@H](C)[C@@H]1C[C@@](O)(NC(=O)O1)[C@H](OC)/C=C/C=C(\C)C2 (some centres unmarked) [Conjugate 82]	6.83	6.06			
CCNC(=O)N[C@H](Cc1ccccc1)C(=O)N[C@H]1CSSC[C@@H](C(=O)N[C@H](C(=O)NCCSSCCC(=O)N(C)[C@@H](C)C(=O)O[C@H]2CC(=O)N(C)c3cc(cc(OC)c3Cl)C/C(C)=C/C=C/[C@@H](OC)[C@@]3(O)C[C@H](OC(=O)N3)[C@@H](C)[C@@H]3O[C@@]23C)[C@@H](C)O)NC(=O)[C@H]([C@@H](C)O)NC(=O)[C@H](CCCCN)NC(=O)[C@@H](Cc2c[nH]c3ccccc23)NC(=O)[C@H](Cc2ccc(O)cc2)NC1=O [Conjugate 65]	7.52	6.64			
COc1cc2cc(c1Cl)N(C)C(=O)C[C@H](OC(=O)[C@H](C)N(C)C(=O)CCSSC[C@@H](N)C(=O)N[C@H]1CSSC[C@@H](C(=O)N[C@H](C(=O)O)[C@@H](C)O)NC(=O)[C@H]([C@@H](C)O)NC(=O)[C@H](CCCCN)NC(=O)[C@@H](Cc3c[nH]c4ccccc34)NC(=O)[C@H](Cc3ccc(O)cc3)NC1=O)[C@]1(C)O[C@H]1[C@H](C)[C@@H]1C[C@@](O)(NC(=O)O1)[C@H](OC)/C=C/C=C(\C)C2 [Conjugate 119]	5.58	< 5.30			
COc1cc2cc(c1Cl)N(C)C(=O)C[C@H](OC(=O)[C@H](C)N(C)C(=O)CCSSCCC(=O)NCCNC(=O)[C@@H](NC(=O)[C@@H]1CSSC[C@H](NC(=O)[C@H](N)Cc3c[nH]c4ccccc34)C(=O)N[C@@H](Cc3ccc(O)cc3)C(=O)N[C@H](Cc3c[nH]c4ccccc34)C(=O)N[C@@H](CCCCN)C(=O)N[C@@H]([C@@H](C)O)C(=O)N1)[C@@H](C)O)[C@]1(C)O[C@H]1[C@H](C)[C@@H]1C[C@@](O)(NC(=O)O1)[C@H](OC)/C=C/C=C(\C)C2 [Conjugate 51]	6.91	6.62			
COc1cc2cc(c1Cl)N(C)C(=O)C[C@H](OC(=O)[C@H](C)N(C)C(=O)CCSSCCNC(=O)[C@@H](NC(=O)[C@@H]1CSSC[C@H](NC(=O)[C@H](N)Cc3ccccc3)C(=O)N[C@@H](Cc3csc4ccccc34)C(=O)N[C@H](Cc3c[nH]c4ccccc34)C(=O)N[C@@H](CCCCN)C(=O)N[C@@H]([C@@H](C)O)C(=O)N1)[C@@H](C)O)[C@]1(C)O[C@H]1[C@H](C)[C@@H]1C[C@@](O)(NC(=O)O1)[C@H](OC)/C=C/C=C(\C)C2 [Conjugate 37]	7.36	6.78			
COc1cc2cc(c1Cl)N(C)C(=O)C[C@H](OC(=O)[C@H](C)N(C)C(=O)CCSCCCN[C@H](Cc1ccccc1)C(=O)N[C@H]1CSSC[C@@H](C(=O)N[C@H](CO)[C@@H](C)O)NC(=O)[C@H]([C@@H](C)O)NC(=O)[C@H](CCCCN)NC(=O)[C@@H](Cc3c[nH]c4ccccc34)NC(=O)[C@H](Cc3ccccc3)NC1=O)[C@]1(C)O[C@H]1[C@H](C)[C@@H]1C[C@@](O)(NC(=O)O1)[C@H](OC)/C=C/C=C(\C)C2 [Conjugate 100]	6.52	5.98			
COc1cc2cc(c1Cl)N(C)C(=O)C[C@H](OC(=O)[C@H](C)N(C)C(=O)CCSSCCC(=O)NCCNC(=O)[C@@H](NC(=O)[C@@H]1CSSC[C@H](NC(=O)[C@H](N)Cc3ccccc3)C(=O)N[C@@H](Cc3ccc(O)cc3)C(=O)N[C@H](Cc3c[nH]c4ccccc34)C(=O)N[C@@H](CCCCN)C(=O)N[C@@H]([C@@H](C)O)C(=O)N1)[C@@H](C)O)[C@]1(C)O[C@H]1[C@H](C)[C@@H]1C[C@@](O)(NC(=O)O1)[C@H](OC)/C=C/C=C(\C)C2 [Conjugate 43]	5.93	5.69			
COc1cc2cc(c1Cl)N(C)C(=O)C[C@H](OC(=O)[C@H](C)N(C)C(=O)CCSSC[C@H](NC(=O)[C@@H]1CSSC[C@H](NC(=O)[C@H](N)Cc3ccccc3)C(=O)N[C@@H](Cc3ccc(O)cc3)C(=O)N[C@H](Cc3c[nH]c4ccccc34)C(=O)N[C@@H](CCCCN)C(=O)N[C@@H]([C@@H](C)O)C(=O)N1)C(=O)NC1CCCCC1)[C@]1(C)O[C@H]1[C@H](C)[C@@H]1C[C@@](O)(NC(=O)O1)[C@H](OC)/C=C/C=C(\C)C2 [Conjugate 63]	7.36	6.77			
CC[C@H](C)[C@@H]([C@@H](CC(=O)N1CCC[C@H]1[C@H](OC)[C@@H](C)C(=O)N[C@H](C)[C@@H](O)c1ccccc1)OC)N(C)C(=O)[C@@H](NC(=O)[C@H](C(C)C)N(C)C(=O)OCc1ccc(NC(=O)[C@H](CCCNC(N)=O)NC(=O)[C@@H](NC(=O)CCCCCN2C(=O)CC(SCCC(=O)N[C@H](Cc3ccccc3)C(=O)N[C@H]3CSSC[C@@H](C(=O)N[C@H](CO)[C@@H](C)O)NC(=O)[C@H]([C@@H](C)O)NC(=O)[C@H](CCCCN)NC(=O)[C@@H](Cc4c[nH]c5ccccc45)NC(=O)[C@H](Cc4ccccc4)NC3=O)C2=O)C(C)C)cc1)C(C)C (some centres unmarked) [Conjugate 5]			6.36	6.08	
C[C@@H](O)[C@@H]1NC(=O)[C@H](CCCCN)NC(=O)[C@@H](Cc2c[nH]c3ccccc23)NC(=O)[C@H](Cc2ccccc2)NC(=O)[C@@H](NC(=O)[C@H](N)Cc2ccccc2)CSSC[C@@H](C(=O)N[C@H](CO)[C@@H](C)O)NC1=O [Octreotide, octreotide, reference compound]					no significant effect
COc1cc2cc(c1Cl)N(C)C(=O)C[C@H](OC(=O)[C@H](C)N(C)C(=O)CCSSCCNC(=O)[C@H](Cc1c[nH]c3ccccc13)NC(=O)[C@@H]1CSSC[C@H](NC(=O)[C@H](N)Cc3ccccc3)C(=O)N[C@@H](Cc3ccc(O)cc3)CN[C@H](Cc3c[nH]c4ccccc34)C(=O)N[C@@H](CCCCN)C(=O)N[C@@H]([C@@H](C)O)C(=O)N1)[C@]1(C)O[C@H]1[C@H](C)[C@@H]1C[C@@](O)(NC(=O)O1)[C@H](OC)/C=C/C=C(\C)C2 [Conjugate 49]	7.16	6.61			
CCCCCCCCCCC(CCN[C@H](Cc1ccccc1)C(=O)N[C@H]1CSSC[C@@H](C(=O)N[C@@H](Cc2c[nH]c3ccccc23)C(N)=O)NC(=O)[C@H]([C@@H](C)O)NC(=O)[C@H](CCCCN)NC(=O)[C@@H](Cc2c[nH]c3ccccc23)NC(=O)[C@H](Cc2ccc(O)cc2)NC1=O)SSCCC(=O)N(C)[C@@H](C)C(=O)O[C@H]1CC(=O)N(C)c2cc(cc(OC)c2Cl)C/C(C)=C/C=C/[C@@H](OC)[C@@]2(O)C[C@H](OC(=O)N2)[C@@H](C)[C@@H]2O[C@@]12C (some centres unmarked) [Conjugate 102]	6.47	6.24			
COc1cc2cc(c1Cl)N(C)C(=O)C[C@H](OC(=O)[C@H](C)N(C)C(=O)CCSSC[C@H](NC(=O)[C@@H]1CSSC[C@H](NC(=O)[C@H](N)Cc3ccccc3)C(=O)N[C@@H](Cc3ccc(O)cc3)C(=O)N[C@H](Cc3c[nH]c4ccccc34)C(=O)N[C@@H](CCCCN)C(=O)N[C@@H]([C@@H](C)O)C(=O)N1)C(=O)O)[C@]1(C)O[C@H]1[C@H](C)[C@@H]1C[C@@](O)(NC(=O)O1)[C@H](OC)/C=C/C=C(\C)C2 [Conjugate 61]	7.05	6.56			
